MIC90 and MIC data for 41 compounds are collected here from patent US8242113B2, “Oxazolidinone derivatives with cyclic amidoxime or cyclic amidrazone pharmaceutical compositions thereof” (Legochem Biosciences, Inc., priority 2008, dated 2012).

For assay [1], the system named is methicillin-resistant Staphylococcus aureus (MRSA). The experiment in a line: In vitro antibacterial activity, broth microdilution (MIC90). Conditions: read-out: Antibacterial activity MIC90, MRSA. (Dilution methods test growth across graded concentrations, often in twofold steps.)
Excerpt: (§1) MIC90 measurement was made according to the broth microdilution method based on the CLSI document [Clinical and Laboratory Standards Institute Document.
(§2) The test compounds in DMSO solution were further diluted 20-fold with sterile distilled water.
Assay [2] relates to linezolid- and vancomycin-resistant Enterococcus faecalis (LVRE). The assay is described as above. Conditions: read-out: Antibacterial activity MIC90, LVRE.
Excerpt: as §1, §2

Converted amounts (≈) assume the structure as drawn. Some results are limits rather than exact numbers.

For the compound `CC(=O)NC[C@H]1CN(c2ccc(N3C=NN(C=O)CC3)c(F)c2)C(=O)O1` [Compound 1], in assay [1], the MIC90 (commonly an inhibitory concentration at the 90% level, which refers to growth in some studies and to a panel of isolates in others) came out at 1 µg/mL (≈ 2.75 µM). In addition, the MIC in assay [2] stood at 8 µg/mL (≈ 22 µM).
With `CC(=O)NC[C@H]1CN(c2ccc(N3C=NNCC3)c(F)c2)C(=O)O1` [Compound 2], the MIC90 in assay [1] amounted to 2 µg/mL (≈ 5.96 µM). Moreover, the MIC in assay [2] came out at 16 µg/mL (≈ 47.7 µM).
For `CC(=O)NC[C@H]1CN(c2ccc(N3C=NN(C)CC3)c(F)c2)C(=O)O1` [Compound 3] the same measures were 2 µg/mL (≈ 5.72 µM) and 8 µg/mL (≈ 22.9 µM).
On to `C=CCN1CCN(c2ccc(N3C[C@H](CNC(C)=O)OC3=O)cc2F)C=N1` [Compound 4], for which the MIC90 in assay [1] was 1 µg/mL (≈ 2.66 µM). Besides, in assay [2], the MIC is 8 µg/mL (≈ 21.3 µM).
For `C#CCN1CCN(c2ccc(N3C[C@H](CNC(C)=O)OC3=O)cc2F)C=N1` [Compound 5] the same measures were 1 µg/mL (≈ 2.68 µM) and 8 µg/mL (≈ 21.4 µM).
Turning to `CCN1CCN(c2ccc(N3C[C@H](CNC(C)=O)OC3=O)cc2F)C=N1` [Compound 6], the MIC90 in assay [1] worked out at 2 µg/mL (≈ 5.5 µM). Further, the MIC in assay [2] stood at 8 µg/mL (≈ 22 µM).
On to `CC(=O)NC[C@H]1CN(c2ccc(N3C=NN(CC#N)CC3)c(F)c2)C(=O)O1` [Compound 7], for which the MIC90 in assay [1] is 1 µg/mL (≈ 2.67 µM). For the same compound, the MIC in assay [2] came out at 8 µg/mL (≈ 21.4 µM).
For `CC(=O)NC[C@H]1CN(c2ccc(N3C=NN(CC(F)(F)F)CC3)c(F)c2)C(=O)O1` [Compound 8] the same measures were 4 µg/mL (≈ 9.58 µM) and 16 µg/mL (≈ 38.3 µM).
`CC(=O)NC[C@H]1CN(c2ccc(N3C=NN(C#N)CC3)c(F)c2)C(=O)O1` [Compound 9]: the MIC90 in assay [1] turned out to be 0.5 µg/mL (≈ 1.39 µM). In addition, in assay [2], the MIC amounted to 8 µg/mL (≈ 22.2 µM).
For `CC(=O)NC[C@H]1CN(c2ccc(N3C=NN(C(C)=O)CC3)c(F)c2)C(=O)O1` [Compound 10] the same measures were 4 µg/mL (≈ 10.6 µM) and 32 µg/mL (≈ 84.8 µM).
Regarding `CC(=O)NC[C@H]1CN(c2ccc(N3C=NN(C(=O)CC#N)CC3)c(F)c2)C(=O)O1` [Compound 11], in assay [1], the MIC90 came out at 1 µg/mL (≈ 2.49 µM). Also, in assay [2], the MIC worked out at 8 µg/mL (≈ 19.9 µM).
For `CC(=O)NC[C@H]1CN(c2ccc(N3C=NN(C(=O)CO)CC3)c(F)c2)C(=O)O1` [Compound 12] the same measures were 2 µg/mL (≈ 5.08 µM) and 8 µg/mL (≈ 20.3 µM).
Consider `CC(=O)NC[C@H]1CN(c2ccc(N3C=NN(C(=O)C4CC4)CC3)c(F)c2)C(=O)O1` [Compound 13], for which the MIC90 in assay [1] stood at 4 µg/mL (≈ 9.92 µM). Also, the MIC in assay [2] worked out at 16 µg/mL (≈ 39.7 µM).
For `CC(=O)NC[C@H]1CN(c2ccc(N3C=NN(C(N)=O)CC3)c(F)c2)C(=O)O1` [Compound 14], the MIC90 in assay [1] was 2 µg/mL (≈ 5.29 µM). Further, the MIC in assay [2] is 8 µg/mL (≈ 21.1 µM).
For `CC(=O)NC[C@H]1CN(c2ccc(N3C=NN(C(=O)NCCO)CC3)c(F)c2)C(=O)O1` [Compound 15], the MIC90 in assay [1] was determined as 4 µg/mL (≈ 9.47 µM). In assay [2], the MIC turned out to be 8 µg/mL (≈ 18.9 µM).
The like results for `CC(=O)NC[C@H]1CN(c2ccc(N3C=NN(C(=O)N(CCO)CCO)CC3)c(F)c2)C(=O)O1` [Compound 16] were, in that order, 128 µg/mL (≈ 274 µM) and greater than 128 µg/mL.
For `CC(=O)NC[C@H]1CN(c2ccc(N3C=NN(C(=O)C(F)F)CC3)c(F)c2)C(=O)O1` [Compound 17] the same measures were 1 µg/mL (≈ 2.42 µM) and 8 µg/mL (≈ 19.4 µM).
As for `CC(=O)NC[C@H]1CN(c2ccc(N3C=NN(S(C)(=O)=O)CC3)c(F)c2)C(=O)O1` [Compound 18], the MIC90 in assay [1] was 4 µg/mL (≈ 9.68 µM). Besides, in assay [2], the MIC came out at 16 µg/mL (≈ 38.7 µM).
For `CNC(=S)N1CCN(c2ccc(N3C[C@H](CNC(C)=O)OC3=O)cc2F)C=N1` [Compound 19] the same measures were 0.5 µg/mL (≈ 1.22 µM) and 4 µg/mL (≈ 9.79 µM).
For `CC(=O)NC[C@H]1CN(c2ccc(N3C=NN(S(N)(=O)=O)CC3)c(F)c2)C(=O)O1` [Compound 20] the same measures were 16 µg/mL (≈ 38.6 µM) and 64 µg/mL (≈ 154 µM).
The like results for `CC(=O)NC[C@H]1CN(c2ccc(N3C=NN(S(=O)(=O)N(C)C)CC3)c(F)c2)C(=O)O1` [Compound 21] were, in that order, 2 µg/mL (≈ 4.52 µM) and 4 µg/mL (≈ 9.04 µM).
As for `CCOC(=O)CN1CCN(c2ccc(N3C[C@H](CNC(C)=O)OC3=O)cc2F)C=N1` [Compound 24], the MIC90 in assay [1] turned out to be 2 µg/mL (≈ 4.75 µM). For the same compound, in assay [2], the MIC came to 16 µg/mL (≈ 38 µM).
As to `CC(=O)NC[C@H]1CN(c2ccc(N3C=NN(CC(N)=O)CC3)c(F)c2)C(=O)O1` [Compound 25], in assay [1], the MIC90 stood at 4 µg/mL (≈ 10.2 µM). In addition, in assay [2], the MIC is 32 µg/mL (≈ 81.6 µM).
For `CC(=O)NC[C@H]1CN(c2ccc(N3C=NN(CC(=O)NO)CC3)c(F)c2)C(=O)O1` [Compound 26] the same measures were 16 µg/mL (≈ 39.2 µM) and 64 µg/mL (≈ 157 µM).
For `CC(=O)NC[C@H]1CN(c2ccc(N3C=NN(CCO)CC3)c(F)c2)C(=O)O1` [Compound 27] the same measures were 4 µg/mL (≈ 10.5 µM) and 64 µg/mL (≈ 169 µM).
For the compound `CC(=O)NC[C@H]1CN(c2ccc(N3C=NOCC3)c(F)c2)C(=O)O1` [Compound 28], the MIC90 in assay [1] amounted to 2 µg/mL (≈ 5.95 µM). The MIC in assay [2] came to 16 µg/mL (≈ 47.6 µM).
On to `CC(=O)NC[C@H]1CN(c2ccc(N3C=NN(C(N)=S)CC3)c(F)c2)C(=O)O1` [Compound 29], for which the MIC90 in assay [1] stood at 0.5 µg/mL (≈ 1.27 µM). For the same compound, the MIC in assay [2] was found to be 4 µg/mL (≈ 10.1 µM).
The like results for `COC(=S)N1CCN(c2ccc(N3C[C@H](CNC(C)=O)OC3=O)cc2F)C=N1` [Compound 30] were, in that order, 1 µg/mL (≈ 2.44 µM) and 4 µg/mL (≈ 9.77 µM).
In the case of `CCOC(=S)N1CCN(c2ccc(N3C[C@H](CNC(C)=O)OC3=O)cc2F)C=N1` [Compound 31], in assay [1], the MIC90 is 1 µg/mL (≈ 2.36 µM). Further, the MIC in assay [2] was determined as 8 µg/mL (≈ 18.9 µM).
For `CC(=O)NC[C@H]1CN(c2ccc(N3C=NN(C(=S)OCCO)CC3)c(F)c2)C(=O)O1` [Compound 32] the same measures were 8 µg/mL (≈ 18.2 µM) and 32 µg/mL (≈ 72.8 µM).
With `CC(=O)NC[C@H]1CN(c2ccc(N3C=NN(C(=S)NCCO)CC3)c(F)c2)C(=O)O1` [Compound 33], the MIC90 in assay [1] worked out at 2 µg/mL (≈ 4.56 µM). The MIC in assay [2] amounted to 8 µg/mL (≈ 18.2 µM).
Take `CC(=O)NC[C@H]1CN(c2ccc(N3C=NN(C(C)=S)CC3)c(F)c2)C(=O)O1` [Compound 34]: in assay [1], the MIC90 came out at 0.5 µg/mL (≈ 1.27 µM). In addition, the MIC in assay [2] turned out to be 4 µg/mL (≈ 10.2 µM).
The like results for `CCOC(=O)N1CCN(c2ccc(N3C[C@H](CNC(C)=O)OC3=O)cc2F)C=N1` [Compound 35] were, in that order, 2 µg/mL (≈ 4.91 µM) and 8 µg/mL (≈ 19.6 µM).
For `CC(=O)NC[C@H]1CN(c2ccc(N3C=NN(C(=O)C(C)=O)CC3)c(F)c2)C(=O)O1` [Compound 36] the same measures were 2 µg/mL (≈ 4.93 µM) and 8 µg/mL (≈ 19.7 µM).
Consider `CC(=O)CN1CCN(c2ccc(N3C[C@H](CNC(C)=O)OC3=O)cc2F)C=N1` [Compound 37], for which, in assay [1], the MIC90 was determined as 2 µg/mL (≈ 5.11 µM). In addition, in assay [2], the MIC came to 8 µg/mL (≈ 20.4 µM).
The like results for `CC(=O)NC[C@H]1CN(c2ccc(N3C=NN(CC(C)O)CC3)c(F)c2)C(=O)O1` (stereo partly shown) [Compound 38] were, in that order, 4 µg/mL (≈ 10.2 µM) and 8 µg/mL (≈ 20.3 µM).
For `C=C(C)CN1CCN(c2ccc(N3C[C@H](CNC(C)=O)OC3=O)cc2F)C=N1` [Compound 39] the same measures were 2 µg/mL (≈ 5.14 µM) and 8 µg/mL (≈ 20.5 µM).
The like results for `C=C(Cl)CN1CCN(c2ccc(N3C[C@H](CNC(C)=O)OC3=O)cc2F)C=N1` [Compound 40] were, in that order, 2 µg/mL (≈ 4.88 µM) and 8 µg/mL (≈ 19.5 µM).
On to `CC(=O)NC[C@H]1CN(c2ccc(N3C=NN(C4CCC4)CC3)c(F)c2)C(=O)O1` [Compound 41], for which the MIC90 in assay [1] came out at 2 µg/mL (≈ 5.14 µM). Moreover, the MIC in assay [2] stood at 4 µg/mL (≈ 10.3 µM).
For `N#CCC(=O)NC[C@H]1CN(c2ccc(N3C=NN(C=O)CC3)c(F)c2)C(=O)O1` [Compound 42], the MIC90 in assay [1] was found to be 8 µg/mL (≈ 20.6 µM). Besides, in assay [2], the MIC was 32 µg/mL (≈ 82.4 µM).
For `CCOC(=O)NC[C@H]1CN(c2ccc(N3C=NN(C=O)CC3)c(F)c2)C(=O)O1` [Compound 43] the same measures were 2 µg/mL (≈ 5.08 µM) and 32 µg/mL (≈ 81.3 µM).
